Assay results published in patent US20240383915A1, “OXAZEPINE COMPOUNDS AND USES THEREOF IN THE TREATMENT OF CANCER” (Genentech, Inc., priority 2021, published 2024).

Legend:
KRas(G12V) = KRas(G12V) (Homo sapiens (Human), UniProt P01116, G12V); test: KRas(G12V) GDP HTRF (BODIPY-GDP exchange TR-FRET); assay type: biochemical
KRas = KRas (Homo sapiens (Human), UniProt P01116); test: KRas GDP HTRF (BODIPY-GDP exchange TR-FRET); assay type: biochemical
In short: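 Inhibition of SOS1-mediated exchange of BODIPY-GDP on KRAS G12D, started with 3 nM recombinant human SOS1 and 300 nM BODIPY-GDP and read after 60 min. TR-FRET excitation 337 nm, ratio 520/490 nm ×10,000. IC50 from 4-parameter Hill fit of normalized data.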

SW480 cells = test: SW480 proliferation assay; assay type: cell-based; conditions: Homo sapiens, SW480, SW480; read-out: SW480 Prolif IC50 (G12V)
PC-9 cells = test: PC9 proliferation assay; assay type: cell-based, human; conditions: Homo sapiens, PC-9, PC9; read-out: PC9 Prolif IC50 (G12V)

Sequence of KRas (P01116-2 other isoform, or with tags, fused parts or gaps): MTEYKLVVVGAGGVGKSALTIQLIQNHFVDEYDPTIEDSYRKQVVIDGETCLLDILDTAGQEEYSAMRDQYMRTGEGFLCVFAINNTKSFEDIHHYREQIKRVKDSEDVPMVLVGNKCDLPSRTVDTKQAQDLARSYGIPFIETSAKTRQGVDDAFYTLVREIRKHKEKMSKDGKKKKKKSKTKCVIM
Sequence of KRas(G12V) (P01116-2 other isoform, or with tags, fused parts or gaps G12V): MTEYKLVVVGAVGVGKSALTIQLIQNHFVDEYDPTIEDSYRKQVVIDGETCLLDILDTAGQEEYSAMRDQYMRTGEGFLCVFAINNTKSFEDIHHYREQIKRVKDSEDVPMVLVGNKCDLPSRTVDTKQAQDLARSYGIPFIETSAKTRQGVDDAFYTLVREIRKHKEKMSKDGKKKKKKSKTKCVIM

Row | Compound | IC50 (KRas(G12V)) | IC50 (KRas) | IC50 (SW480 cells) | IC50 (PC-9 cells)
1 | Cc1cc(N)nc(-c2c(Cl)c3c4c(nc(OC[C@@H]5C[C@@]6(CN5C)CC6(F)F)nc4c2F)N([C@H](C)c2cccnc2N)CCO3)c1C(F)(F)F (atropisomer, axis not shown) [Example 67, 6-((R)-4-((R)-1-(2-aminopyridin-3-yl)ethyl)-8-chloro-2-(((3S,6S)-1,1-difluoro-5-methyl-5-azaspiro[2.4]heptan-6-yl)methoxy)-10-fluoro-5,6-dihydro-4H-[1,4]oxazepino[5,6,7-de]quinazolin-9-yl)-4-methyl-5-(trifluoromethyl)pyridin-2-amine] | 0.17 nM | 0.55 nM | 3.7 nM | 2800 nM
2 | Cc1cc(N)nc(-c2c(Cl)c3c4c(nc(OC[C@@H]5C[C@]6(CN5C)CC6(F)F)nc4c2F)N([C@H](C)c2cccnc2N)CCO3)c1C(F)(F)F (atropisomer, axis not shown) [Example 68, 6-((R)-4-((R)-1-(2-aminopyridin-3-yl)ethyl)-8-chloro-2-(((3R,6S)-1,1-difluoro-5-methyl-5-azaspiro[2.4]heptan-6-yl)methoxy)-10-fluoro-5,6-dihydro-4H-[1,4]oxazepino[5,6,7-de]quinazolin-9-yl)-4-methyl-5-(trifluoromethyl)pyridin-2-amine] | 0.1 nM | 0.31 nM | 11 nM | 1800 nM
3 | Cc1cc(N)nc(-c2c(Cl)c3c4c(nc(OCCN5CCOCC5)nc4c2F)N([C@H](C)c2cccnc2N)CCO3)c1C(F)(F)F (atropisomer, axis not shown) [Example 138, 6-((R)-4-((R)-1-(2-aminopyridin-3-yl)ethyl)-8-chloro-10-fluoro-2-(2-morpholinoethoxy)-5,6-dihydro-4H-[1,4]oxazepino[5,6,7-de]quinazolin-9-yl)-4-methyl-5-(trifluoromethyl)pyridin-2-amine] | – | – | 77 nM | 4900 nM
4 | COC1(CCOc2nc3c4c(c(Cl)c(-c5nc(N)cc(C)c5C(F)(F)F)c(F)c4n2)OCCN3[C@H](C)c2cccnc2N)CCC1 (atropisomer, axis not shown) [Example 150, 6-((R)-4-((R)-1-(2-aminopyridin-3-yl)ethyl)-8-chloro-10-fluoro-2-(2-(1-methoxycyclobutyl)ethoxy)-5,6-dihydro-4H-[1,4]oxazepino[5,6,7-de]quinazolin-9-yl)-4-methyl-5-(trifluoromethyl)pyridin-2-amine] | – | – | 790 nM | 8900 nM
5 | Cc1cc(N)nc(-c2c(Cl)c3c4c(nc(OC[C@@]56CCCN5C[C@H](F)C6)nc4c2F)N(Cc2cnc[nH]2)CCO3)c1C(F)(F)F (single isomer, unassigned) [Example 47a] | – | – | 20000 nM | 7100 nM
6 | Cc1cc(N)nc(-c2cc3nc(OC[C@@]45CCCN4CC(F)(F)C5)nc4c3c(c2Cl)OCCN4Cc2cccnc2N)c1C(F)(F)F [Example 34, (S)-6-(4-((2-aminopyridin-3-yl)methyl)-8-chloro-2-((2,2-difluorotetrahydro-1H-pyrrolizin-7a(5H)-yl)methoxy)-5,6-dihydro-4H-[1,4]oxazepino[5,6,7-de]quinazolin-9-yl)-4-methyl-5-(trifluoromethyl)pyridin-2-amine] | – | – | 820 nM | 4000 nM
7 | Cc1cc(N)nc(-c2cc3nc(OCC45COC(C4)C5)nc4c3c(c2Cl)OCCN4Cc2cccnc2N)c1C(F)(F)F [Example 36, 6-(2-((2-oxabicyclo[2.1.1]hexan-4-yl)methoxy)-4-((2-aminopyridin-3-yl)methyl)-8-chloro-5,6-dihydro-4H-[1,4]oxazepino[5,6,7-de]quinazolin-9-yl)-4-methyl-5-(trifluoromethyl)pyridin-2-amine] | – | – | 8200 nM | 20000 nM
8 | Cc1cc(N)nc(-c2cc3nc(OC[C@]45CCCN4CC(F)(F)C5)nc4c3c(c2Cl)OCCN4Cc2cccnc2N)c1C(F)(F)F [Example 50, (R)-6-(4-((2-aminopyridin-3-yl)methyl)-8-chloro-2-((2,2-difluorotetrahydro-1H-pyrrolizin-7a(5H)-yl)methoxy)-5,6-dihydro-4H-[1,4]oxazepino[5,6,7-de]quinazolin-9-yl)-4-methyl-5-(trifluoromethyl)pyridin-2-amine] | – | – | 930 nM | 6700 nM
9 | Cc1cc(N)nc(-c2c(Cl)c3c4c(nc(OCC56CC(CO5)C6)nc4c2F)N([C@H](C)c2cccnc2N)CCO3)c1C(F)(F)F [Example 143, 6-((R)-2-((2-oxabicyclo[2.1.1]hexan-1-yl)methoxy)-4-((R)-1-(2-aminopyridin-3-yl)ethyl)-8-chloro-10-fluoro-5,6-dihydro-4H-[1,4]oxazepino[5,6,7-de]quinazolin-9-yl)-4-methyl-5-(trifluoromethyl)pyridin-2-amine] | – | – | 94 nM | 10000 nM

Results, then the compound that gave them:

Row | IC50 (KRas(G12V)) | IC50 (KRas) | IC50 (SW480 cells) | IC50 (PC-9 cells) | Compound
10 | 0.12 nM | 0.33 nM | 21 nM | 20000 nM | Cc1cc(N)nc(-c2c(Cl)c3c4c(nc(OC[C@@]56CCN5CC(F)(F)C6)nc4c2F)N([C@H](C)c2ccnnc2N)CCO3)c1C(F)(F)F (atropisomer, axis not shown) [Example 77a, 4-((R)-1-((R)-9-(6-amino-4-methyl-3-(trifluoromethyl)pyridin-2-yl)-8-chloro-2-(((S)-3,3-difluoro-1-azabicyclo[3.2.0]heptan-5-yl)methoxy)-10-fluoro-5,6-dihydro-4H-[1,4]oxazepino[5,6,7-de]quinazolin-4-yl)ethyl)pyridazin-3-amine]
11 | 0.13 nM | 0.34 nM | 65 nM | 20000 nM | Cc1cc(N)nc(-c2c(Cl)c3c4c(nc(OC[C@]56CCN5CC(F)(F)C6)nc4c2F)N([C@H](C)c2ccnnc2N)CCO3)c1C(F)(F)F (atropisomer, axis not shown) [Example 77b, 4-((R)-1-((R)-9-(6-amino-4-methyl-3-(trifluoromethyl)pyridin-2-yl)-8-chloro-2-(((R)-3,3-difluoro-1-azabicyclo[3.2.0]heptan-5-yl)methoxy)-10-fluoro-5,6-dihydro-4H-[1,4]oxazepino[5,6,7-de]quinazolin-4-yl)ethyl)pyridazin-3-amine]
12 | 0.11 nM | 0.164 nM | 26 nM | 6800 nM | Cc1cc(N)nc(-c2c(Cl)c3c4c(nc(OC[C@@]56CCN5CC(F)(F)C6)nc4c2F)N([C@H](C)c2cncnc2N)CCO3)c1C(F)(F)F (atropisomer, axis not shown) [Example 82a, 5-((R)-1-((R)-9-(6-amino-4-methyl-3-(trifluoromethyl)pyridin-2-yl)-8-chloro-2-(((S)-3,3-difluoro-1-azabicyclo[3.2.0]heptan-5-yl)methoxy)-10-fluoro-5,6-dihydro-4H-[1,4]oxazepino[5,6,7-de]quinazolin-4-yl)ethyl)pyrimidin-4-amine]
13 | – | – | 25 nM | 7100 nM | Cc1cc(N)nc(-c2c(Cl)c3c4c(nc(OC[C@@]56CCCN5C[C@H](F)C6)nc4c2F)N([C@H](C)c2ccnnc2N)CCO3)c1C(F)(F)F (atropisomer, axis not shown) [Example 133c]
